Experimental data reported in patent US20020026053A1, “Novel 3-(substituted) -2- indolinones compounds and use thereof as inhibitors of protein kinase activity” (priority 1997, published 2002).

Molecular target: T1, Met receptor (EGFR/Met chimeric cells, EMR) (Homo sapiens, UniProt P08581)
T1 construct: expressed in transfected cells; the other entry of the earlier key: EGFR (P00533, Epidermal growth factor receptor)
Test: Met Autophosphorylation Assay
Type: biochemical
Experimental: Met Autophosphorylation Assay
This assay determines Met tyrosine kinase activity by analyzing Met protein tyrosine kinase levels on the Met receptor.
a. HNTG (5× stock solution): Dissolve 23.83 g HEPES and 43.83 g NaCl in about 350 ml dH2O. Adjust pH to 7.2 with HCl or NaOH, add 500 ml glycerol and 10 ml Triton X-100, mix, add dH2O to 1 L total volume. To make 1 L of 1× working solution add 200 ml 5× stock solution to 800 ml dH2O, check and adjust pH as necessary, store at 4° C.
b. PBS (Dulbecco's Phosphate-Buffered Saline), Gibco Cat. # 450-1300EB (1× solution).
c. Blocking Buffer: in 500 ml dH2O place 100 g BSA, 12.1 g Tris-pH7.5, 58.44 g NaCl and 10 ml Tween-20, dilute to 1 L total volume.
d. Kinase Buffer: To 500 ml dH2O add 12.1 g TRIS (pH 7.2), 58.4 g NaCl, 40.7 g MgCl2 and 1.9 g EGTA; bring to 1 L total volume with dH2O.
e. PMSF (Phenylmethylsulfonyl fluoride), Sigma Cat. # P-7626, to 435.5 mg, add 100% ethanol to 25 ml total volume, vortex.
f. ATP (Bacterial Source), Sigma Cat. # A-7699, store powder at −20° C.; to make up solution for use, dissolve 3.31 mg in 1 ml dH2O.
g. RC-20H HRPO Conjugated Anti-Phosphotyrosine, Transduction Laboratories Cat. # E120H.
h. Pierce 1-Step Turbo™ B-ELISA (3,3′,5,5′-tetramethylbenzidine, Pierce Cat. # 34022.
i. H2SO4, add 1 ml conc.(18 N) to 35 ml dH2O.
j. TRIS HCL, Fischer Cat. # BP152-5; to 121.14 g of material, add 600 ml MilliQ H2O, adjust pH to 7.5 (or 7.2) with HCl, bring volume to 1 L with MilliQ H2O.
k. NaCl, Fischer Cat. # S271-10, make up 5M solution.
m. Na3VO4, Fischer Cat. # S454-50, to 1.8 g material add 80 ml MilliQ H2O, adjust pH to 10.0 with HCl or NaOH, boil in microwave, cool, check pH, repeat procedure until pH stable at 10.0, add MilliQ H2O to 100 ml total volume, make 1 ml aliquots and store at −80° C.
n. MgCl2, Fischer Cat. # M33-500, make up 1M solution.
o. HEPES, Fischer Cat. # BP310-500, to 200 ml MilliQ H2O, add 59.6 g material, adjust pH to 7.5, bring volume to 250 ml total, sterile filter.
p. Albumin, Bovine (BSA), Sigma Cat. # A-4503, to 30 grams material add sterile distilled water to make total volume of 300 ml, store at 4° C.
q. TBST Buffer: to approx. 900 ml dH2O in a 1 L graduated cylinder add 6.057 g TRIS and 8.766 g NaCl, when dissolved, adjust pH to 7.2 with HCl, add 1.0 ml Triton X-100 and bring to 1 L total volume with dH2O.
r. Goat Affinity purified antibody Rabbit IgG (whole molecule), Cappel Cat. # 55641.
s. Anti h-Met (C-28) rabbit polyclonal IgG antibody, Santa Cruz Chemical Cat. # SC-161.
t. Transiently Transfected EGFR/Met chimeric cells (EMR) (Komada, et al., Oncogene, 8:2381-2390 (1993).
u. Sodium Carbonate Buffer, ([…], Fischer Cat. # S495) to 10.6 g material add 800 ml MilliQ H2O, when dissolved adjust pH to 9.6 with NaOH, bring up to 1 L total volume with MilliQ H2O, filter, store at 4° C.
All of the following steps are conducted at room temperature unless it is specifically indicated otherwise. All ELISA plate washing is by rinsing 4× with TBST.
This procedure can be performed the night before or immediately prior to the start of receptor capture.
1. Quick thaw lysates in a 37° C. waterbath with a swirling motion until the last crystals disappear.
2. Lyse cell pellet with 1× HNTG containing 1 mM PMSF. Use 3 ml of HNTG per 15 cm dish of cells. Add ½ the calculated HNTG volume, vortex the tube for 1 min., add the remaining amount of HNTG, vortex for another min.
3. Balance tubes, centrifuge at 10,000× g for 10 min at 4° C.
4. Pool supernatants, remove an aliquot for protein determination.
5. Quick freeze pooled sample in dry ice/ethanol bath. This step is performed regardless of whether lysate will be stored overnight or used immediately following protein determination.
6. Perform protein determination using standard bicinchoninic acid (BCA) method (BCA Assay Reagent Kit from Pierce Chemical Cat. # 23225).
1. Coat Corning 96 well ELISA plates with 5 μg per well Goat anti-Rabbit antibody in Carbonate Buffer for a total well volume of 50 μl. Store overnight at 4° C. […]

T1 sequence (P08581 with tags, fused parts or gaps): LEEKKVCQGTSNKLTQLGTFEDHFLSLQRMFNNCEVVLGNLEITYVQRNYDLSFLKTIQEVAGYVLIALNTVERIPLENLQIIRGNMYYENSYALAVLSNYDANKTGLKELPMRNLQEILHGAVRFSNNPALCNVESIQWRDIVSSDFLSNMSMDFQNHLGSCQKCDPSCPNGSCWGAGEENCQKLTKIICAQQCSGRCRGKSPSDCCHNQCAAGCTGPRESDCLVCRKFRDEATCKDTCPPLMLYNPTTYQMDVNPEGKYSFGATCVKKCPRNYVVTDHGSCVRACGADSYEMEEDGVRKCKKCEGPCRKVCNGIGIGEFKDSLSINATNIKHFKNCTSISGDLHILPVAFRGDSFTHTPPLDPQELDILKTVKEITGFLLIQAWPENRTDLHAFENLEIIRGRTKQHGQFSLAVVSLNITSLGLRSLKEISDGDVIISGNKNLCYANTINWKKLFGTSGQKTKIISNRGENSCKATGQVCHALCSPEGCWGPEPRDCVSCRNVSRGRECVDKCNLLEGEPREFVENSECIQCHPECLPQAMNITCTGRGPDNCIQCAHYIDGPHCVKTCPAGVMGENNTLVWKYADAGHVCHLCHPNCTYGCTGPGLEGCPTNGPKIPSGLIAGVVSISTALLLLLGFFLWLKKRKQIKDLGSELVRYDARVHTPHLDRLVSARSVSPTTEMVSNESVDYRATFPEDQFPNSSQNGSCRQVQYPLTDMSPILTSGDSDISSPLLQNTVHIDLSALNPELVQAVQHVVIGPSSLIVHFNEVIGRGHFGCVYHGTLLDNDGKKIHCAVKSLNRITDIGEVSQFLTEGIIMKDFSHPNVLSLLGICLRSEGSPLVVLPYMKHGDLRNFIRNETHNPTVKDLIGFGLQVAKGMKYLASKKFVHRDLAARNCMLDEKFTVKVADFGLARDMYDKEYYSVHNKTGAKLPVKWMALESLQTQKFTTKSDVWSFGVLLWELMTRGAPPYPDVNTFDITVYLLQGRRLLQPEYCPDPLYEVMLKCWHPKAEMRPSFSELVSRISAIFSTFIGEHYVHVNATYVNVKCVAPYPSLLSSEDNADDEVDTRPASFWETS

| SMILES | Met Kinase % Inhibition (P.130) [%] |
| --- | --- |
| C=C(C)C1CC=C(C=C2C(=O)Nc3c(Br)cc(Br)c(C)c32)CC1 (stereo not drawn) [10731/H04] | 41.0 |
| Cc1c(Br)cc(Br)c2c1C(=Cc1coc3ccc(C(C)C)cc3c1=O)C(=O)N2 [10731/H05] | 32.2 |
| Cc1ccc2occ(C=C3C(=O)Nc4c(Br)cc(Br)c(C)c43)c(=O)c2c1 [10731/H06] | 17.2 |
| Cc1c(Br)cc(Br)c2c1C(=Cc1coc3ccc([N+](=O)[O-])cc3c1=O)C(=O)N2 [10731/H07] | 1.8 |
| Cc1c(Br)cc(Br)c2c1C(=Cc1c[nH]c(=O)[nH]c1=O)C(=O)N2 [10731/H08] | 10.9 |
| COc1ccc2[nH]cc(C=C3C(=O)Nc4c(Br)cc(Br)c(C)c43)c2c1 [10731/H09] | 12.8 |
| Cc1c(Br)cc(Br)c2c1C(=C1C(=O)N(C)c3ccccc31)C(=O)N2 [10731/H10] | 28.4 |
| Cc1c(Br)cc(Br)c2c1C(=CC(c1cccs1)C(F)(F)F)C(=O)N2 (stereo not drawn) [10732/H02] | 56.8 |
| COc1c(C(C)C)cc(C=C2C(=O)Nc3c(Br)cc(Br)c(C)c32)cc1C(C)C [10732/H03] | 24.1 |
| Cc1c(Br)cc(Br)c2c1C(=Cc1cc(C(C)C)c(Oc3ccccc3)c(C(C)C)c1)C(=O)N2 [10732/H04] | 57.6 |
| COc1ccc(C=C2C(=O)Nc3c(Br)cc(Br)c(C)c32)cc1C(C)(C)C [10732/H05] | 13.3 |
| Cc1c(Br)cc(Br)c2c1C(=Cc1ccc(OCc3ccccc3)c(C(C)(C)C)c1)C(=O)N2 [10732/H06] | 31.1 |
| COc1c(Br)cc(C=C2C(=O)Nc3c(Br)cc(Br)c(C)c32)cc1C(C)(C)C [10732/H07] | 26.7 |
| Cc1c(Br)cc(Br)c2c1C(=Cc1cc(Br)c(OCc3ccccc3)c(C(C)(C)C)c1)C(=O)N2 [10732/H08] | 38.7 |
| COc1c(Cl)cc(C=C2C(=O)Nc3c(Br)cc(Br)c(C)c32)cc1C(C)(C)C [10732/H09] | 49.8 |
| Cc1c(Br)cc(Br)c2c1C(=Cc1cc(Cl)c(OCc3ccccc3)c(C(C)(C)C)c1)C(=O)N2 [10732/H10] | 28.0 |
| COc1c(I)cc(C=C2C(=O)Nc3c(Br)cc(Br)c(C)c32)cc1C(C)(C)C [10732/H11] | 46.7 |
| Cc1c(Br)cc(Br)c2c1C(=Cc1cc(I)c(OCc3ccccc3)c(C(C)(C)C)c1)C(=O)N2 [10733/H02] | 38.9 |
| COc1c([N+](=O)[O-])cc(C=C2C(=O)Nc3c(Br)cc(Br)c(C)c32)cc1C(C)(C)C [10733/H03] | 0.6 |
| COc1c(C(C)(C)C)cc(C=C2C(=O)Nc3c(Br)cc(Br)c(C)c32)cc1C(C)(C)C [10733/H04] | 11.9 |
| Cc1c(Br)cc(Br)c2c1C(=Cc1cc(C(C)(C)C)c(OCc3ccccc3)c(C(C)(C)C)c1)C(=O)N2 [10733/H05] | 5.6 |
| COc1c(C)cc(C=C2C(=O)Nc3c(Br)cc(Br)c(C)c32)cc1C [10733/H06] | 18.4 |
| Cc1cc(C=C2C(=O)Nc3c(Br)cc(Br)c(C)c32)cc(C)c1OCc1ccccc1 [10733/H07] | −1.3 |
| COc1cc(Br)cc(C=C2C(=O)Nc3c(Br)cc(Br)c(C)c32)c1O [10733/H08] | 41.6 |
| Cc1c(Br)cc(Br)c2c1C(=Cc1cc(Br)ccc1O)C(=O)N2 [10733/H09] | 51.9 |
| Cc1c(Br)cc(Br)c2c1C(=Cc1cc([N+](=O)[O-])ccc1O)C(=O)N2 [10733/H10] | 26.5 |
| COc1c(O)ccc(C=C2C(=O)Nc3c(Br)cc(Br)c(C)c32)c1[N+](=O)[O-] [10733/H11] | 76.7 |
